Assay results published in ChEMBL document CHEMBL1201862, “PubChem BioAssay data set” (2004).
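Each compound was tested at five concentrations against cells in 96-well plates for 48 hours. GI50 marks 50% less growth.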 Calls of active or inactive are those of the source. Rule as the data show it: active = GI50 up to about 1.1 µM and inactive = higher.

Columns and labels:
Assay in all cases: NCI anticancer screen, dose series, 48 h
[1] = system: NCI/ADR-RES
[2] = system: HT-29
[3] = system: MOLT-4
[4] = system: OVCAR-8
[5] = system: HL-60
[6] = system: M14
[7] = system: OVCAR-4
[8] = system: SN12C
[9] = system: Malme-3M
[10] = system: NCI-H460
[11] = system: T47D
[12] = system: TK-10
[13] = system: RXF 393
[14] = system: COLO 205
[15] = system: BT-549
[16] = system: MCF7
[17] = system: HOP-62
[18] = system: SF-268
[19] = system: SR
[20] = system: IGROV-1
[21] = system: MDA-N
[22] = system: HCC 2998
[23] = system: KM12
[24] = system: 786-0
[25] = system: K562
[26] = system: CAKI-1
[27] = system: SF-295
[28] = system: SW-620
[29] = system: MDA-MB-435
[30] = system: A549
[31] = system: UACC-257
[32] = system: NCI-H23
[33] = system: EKVX
[34] = system: DU-145
[35] = system: Hs-578T
[36] = system: UO-31
[37] = system: SNB-75
[38] = system: SK-MEL-2
[39] = system: CCRF-CEM
[40] = system: HCT-15
[41] = system: SK-OV-3
[42] = system: LOX IMVI
[43] = system: OVCAR-5
[44] = system: HCT-116
[45] = system: OVCAR-3
[46] = system: PC-3
[47] = system: MDA-MB-231
[48] = system: ACHN
[49] = system: UACC-62
[50] = system: NCI-H522
[51] = system: SF-539
[52] = system: SK-MEL-5
[53] = system: A498
[54] = system: U-251
[55] = system: RPMI-8226
[56] = system: SK-MEL-28
[57] = system: SNB-19
[58] = system: NCI-H226
[59] = system: HOP-92

Measured: GI50

CC(=O)n1nc(-c2ccc3ccccc3c2)nc1C
inactive: [1] > 100 µM | [2] > 100 µM | [3] 56.8 µM | [4] > 100 µM | [5] 46 µM | [6] > 100 µM | [7] 91 µM | [8] > 100 µM | [9] > 100 µM | [10] 95.9 µM | [11] 52.4 µM | [12] > 100 µM | [13] > 100 µM | [14] > 100 µM | [15] 48.6 µM | [16] > 100 µM | [17] 39.5 µM | [18] > 100 µM | [19] > 100 µM | [20] > 100 µM | [21] 70.8 µM | [22] > 100 µM | [23] 23.9 µM | [24] > 100 µM | [25] 90.8 µM | [26] 53.7 µM | [27] 52.8 µM | [28] 32.8 µM | [29] 33.7 µM | [30] 81.1 µM | [31] 83.9 µM | [32] > 10 µM | [33] 63 µM | [34] 94.6 µM | [35] 39.4 µM | [36] 39.4 µM | [37] 70.3 µM | [38] > 100 µM | [39] 83.8 µM | [41] > 100 µM | [42] 57.3 µM | [43] > 100 µM | [44] 67.3 µM | [45] > 100 µM | [46] 62.2 µM | [47] > 100 µM | [48] 73.1 µM | [49] 89.9 µM | [50] > 100 µM | [51] > 100 µM | [52] 36.1 µM
35.6 µM: [40]

O=C(O)c1ccc(/N=C(\C(=N\c2ccc(C(=O)O)cc2)c2ccccc2)c2ccccc2)cc1
inactive: [1] > 100 µM | [3] > 100 µM | [4] > 100 µM | [53] > 100 µM | [6] > 100 µM | [7] > 100 µM | [8] > 100 µM | [10] > 100 µM | [11] > 100 µM | [12] > 100 µM | [13] > 100 µM | [54] > 100 µM | [14] > 100 µM | [15] 33.5 µM | [16] > 100 µM | [17] > 100 µM | [18] > 100 µM | [19] > 100 µM | [20] > 100 µM | [55] > 100 µM | [21] > 100 µM | [22] > 100 µM | [56] > 100 µM | [23] > 100 µM | [57] > 100 µM | [24] > 100 µM | [25] > 100 µM | [27] > 100 µM | [28] > 100 µM | [29] > 100 µM | [30] > 100 µM | [31] > 100 µM | [32] > 100 µM | [58] > 100 µM | [33] > 100 µM | [34] > 100 µM | [35] > 100 µM | [36] > 100 µM | [37] > 100 µM | [38] > 100 µM | [41] > 100 µM | [42] > 100 µM | [43] > 100 µM | [44] > 100 µM | [45] > 100 µM | [46] > 100 µM | [47] > 100 µM | [48] > 100 µM | [49] > 100 µM
> 100 µM: [40]

COC1C(O)CC(OC2C(C)OC(Oc3cc(O)c4c(O)c5c(cc4c3)C[C@@H]([C@H](OC)C(=O)[C@@H](O)[C@@H](C)O)[C@H](OC3CC(OC4CC(OC6CC(C)(O)C(O)C(C)O6)C(O)C(C)O4)C(O)C(C)O3)C5=O)CC2OC(C)=O)OC1C (stereo not given in full)
> 100 µM: [40]
inactive: [1] > 100 µM | [2] 65.2 µM | [3] 17.5 µM | [4] 67.1 µM | [53] > 100 µM | [5] > 100 µM | [7] > 100 µM | [8] 32.5 µM | [9] 3.47 µM | [10] 31.6 µM | [11] 66.5 µM | [12] > 100 µM | [54] 48.1 µM | [14] 70.8 µM | [15] > 100 µM | [16] 24.4 µM | [17] > 100 µM | [18] 97.1 µM | [19] 63.5 µM | [20] 41.1 µM | [55] 60.8 µM | [21] 97.7 µM | [22] 97.9 µM | [56] 32.2 µM | [23] 88.1 µM | [57] 33.2 µM | [24] > 100 µM | [25] 40.1 µM | [26] > 100 µM | [27] > 10 µM | [28] > 100 µM | [29] 34 µM | [30] 63.1 µM | [32] 88.1 µM | [58] 29 µM | [33] > 100 µM | [34] > 100 µM | [35] 20.3 µM | [36] > 100 µM | [37] > 100 µM | [38] 79.3 µM | [39] > 100 µM | [41] > 100 µM | [42] 19.5 µM | [43] > 100 µM | [44] 59.2 µM | [45] > 100 µM | [46] > 100 µM | [47] 91.6 µM | [48] 56.1 µM | [49] 29.4 µM | [50] 39.1 µM | [51] 38.6 µM | [52] 17.1 µM

CN(CCC(=O)O)C1=Nc2ccc(Cl)cc2C(c2ccccc2)=[N+]([O-])C1
> 100 µM: [40]
inactive: [1] > 100 µM | [2] > 100 µM | [3] > 100 µM | [4] > 100 µM | [53] > 100 µM | [5] > 100 µM | [6] > 100 µM | [7] 72.1 µM | [8] > 100 µM | [9] > 100 µM | [10] > 100 µM | [11] > 100 µM | [12] > 100 µM | [13] > 100 µM | [54] > 100 µM | [14] > 100 µM | [15] > 100 µM | [16] > 100 µM | [17] > 100 µM | [18] > 100 µM | [19] > 100 µM | [20] > 100 µM | [55] > 100 µM | [21] > 100 µM | [56] > 100 µM | [59] > 100 µM | [23] > 100 µM | [57] > 100 µM | [24] > 100 µM | [25] > 100 µM | [26] 78.5 µM | [27] > 100 µM | [28] > 100 µM | [29] 86.1 µM | [30] > 100 µM | [31] > 100 µM | [32] > 100 µM | [58] > 100 µM | [33] > 100 µM | [34] > 100 µM | [35] > 100 µM | [36] > 100 µM | [37] > 100 µM | [38] > 100 µM | [39] > 100 µM | [41] > 100 µM | [42] > 100 µM | [43] > 100 µM | [44] > 100 µM | [45] > 100 µM | [46] > 100 µM | [47] > 100 µM | [48] > 100 µM | [49] > 100 µM | [50] > 100 µM | [51] > 100 µM | [52] > 100 µM
